# Source: patent US20250381243A1, “HETEROCYCLES AND USES THEREOF” (Kumquat Biosciences Inc., priority 2022, published 2025)
# Test system: A549 cells
# Experiment: Cell proliferation assay (CellTiter-Glo), cells with K-Ras G12S mutation
# Assay type: cell-based
# Conditions: Homo sapiens, 500 nM to 5 μM (mixed units), read-out: Inhibition of A549 Cells (IC50)
# Outline: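 A549 (K-Ras G12S) cells in RPMI-1640 with 10% heat-inactivated FBS, plated in standard or ultra-low-attachment 384-well format, treated next day with a dilution series (e.g., 10-point, 3-fold). Viability read by CellTiter-Glo luminescence about 6 days later; IC50 from four-parameter fit.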
row,IC50 [nM],Compound
1,500 to 5000,"CC(C)[C@H]1N(C(=O)n2cnc(Cl)n2)C[C@]12CC[C@@H](C)N(c1nc(OC[C@@]34CCCN3C[C@H](F)C4)nc3c(F)c(-c4ccc(F)c5sc(N)c(C#N)c45)c(Cl)cc13)C2 [Compound 153, 2-amino-4-(6-chloro-4-((1R,4R,7R)-2-(3-chloro-1H-1,2,4-triazole-1-carbonyl)-1-isopropyl-7-methyl-2,6-diazaspiro[3.5]nonan-6-yl)-8-fluoro-2-(((2R,7aS)-2-fluorotetrahydro-1H-pyrrolizin-7a(5H)-yl)methoxy)quinazolin-7-yl)-7-fluorobenzo[b]thiophene-3-carbonitrile]"

# Same assay, conditions: Homo sapiens, ≤500 nM, read-out: Inhibition of A549 Cells (IC50)
row,Compound,IC50 [nM]
1,"CC1C(N(C)C(=O)n2cncn2)CCN1c1nc(OC[C@@]23CCCN2C[C@H](F)C3)nc2c(F)c(-c3ccc(F)c4sc(N)c(C#N)c34)c(Cl)cc12 (stereo partly drawn) [Compound 125, N-(1-(7-(2-amino-3-cyano-7-fluorobenzo[b]thiophen-4-yl)-6-chloro-8-fluoro-2-(((2R,7aS)-2-fluorotetrahydro-1H-pyrrolizin-7a(5H)-yl)methoxy)quinazolin-4-yl)-2-methylpyrrolidin-3-yl)-N-methyl-1H-1,2,4-triazole-1-carboxamide]",≤ 500
2,"N#Cc1c(N)sc2c(F)ccc(-c3c(Cl)cc4c(N5CCC(N(C(=O)n6cnc(Cl)n6)C6CC6)C5)nc(OC[C@@]56CCCN5C[C@H](F)C6)nc4c3F)c12 (stereo partly drawn) [Compound 143, N-(1-(7-(2-amino-3-cyano-7-fluorobenzo[b]thiophen-4-yl)-6-chloro-8-fluoro-2-(((2R,7aS)-2-fluorotetrahydro-1H-pyrrolizin-7a(5H)-yl)methoxy)quinazolin-4-yl)pyrrolidin-3-yl)-3-chloro-N-cyclopropyl-1H-1,2,4-triazole-1-carboxamide]",≤ 500
3,"CN(C[C@@H]1CN(C(=O)n2cnc(F)n2)[C@@H]1C1(C)CC1)c1nc(OC[C@@]23CCCN2C[C@H](F)C3)nc2c(F)c(-c3ccc(F)c4sc(N)c(C#N)c34)c(Cl)cc12 [Compound 130, 2-amino-4-(6-chloro-8-fluoro-4-((((2S,3R)-1-(3-fluoro-1H-1,2,4-triazole-1-carbonyl)-2-(1-methylcyclopropyl)azetidin-3-yl)methyl)(methyl)amino)-2-(((2R,7aS)-2-fluorotetrahydro-1H-pyrrolizin-7a(5H)-yl)methoxy)quinazolin-7-yl)-7-fluorobenzo[b]thiophene-3-carbonitrile]",≤ 500
4,"CC(C)[C@@H]1[C@H](CN(C)c2nc(OC[C@@]34CCCN3C[C@H](F)C4)nc3c(F)c(-c4ccc(F)c5sc(N)c(C#N)c45)c(Cl)cc23)CN1C(=O)n1cnc(C#N)n1 (atropisomer, axis not shown; (aS)) [Compound 162, 1-((2R,3R)-3-(((7-((R)-2-amino-3-cyano-7-fluorobenzo[b]thiophen-4-yl)-6-chloro-8-fluoro-2-(((2R,7aS)-2-fluorotetrahydro-1H-pyrrolizin-7a (5H)-yl)methoxy)quinazolin-4-yl)(methyl)amino)methyl)-2-isopropylazetidine-1-carbonyl)-1H-1,2,4-triazole-3-carbonitrile]",≤ 500
5,"CN(C[C@@H]1CN(C(=O)n2cnc(C(F)F)n2)[C@@H]1C(C)(C)C)c1nc(OC[C@@]23CCCN2C[C@H](F)C3)nc2c(F)c(-c3ccc(F)c4sc(N)c(C#N)c34)c(Cl)cc12 [Compound 228, 2-amino-4-(4-((((2S,3R)-2-(tert-butyl)-1-(3-(difluoromethyl)-1H-1,2,4-triazole-1-carbonyl)azetidin-3-yl)methyl)(methyl)amino)-6-chloro-8-fluoro-2-(((2R,7aS)-2-fluorotetrahydro-1H-pyrrolizin-7a(5H)-yl)methoxy)quinazolin-7-yl)-7-fluorobenzo[b]thiophene-3-carbonitrile]",≤ 500
6,"CN(C(=O)n1cncn1)C1CCCN(c2nc(OC[C@@]34CCCN3C[C@H](F)C4)nc3c(F)c(-c4ccc(F)c5sc(N)c(C#N)c45)c(Cl)cc23)C1 (stereo partly drawn) [Compound 119, N-(1-(7-(2-amino-3-cyano-7-fluorobenzo[b]thiophen-4-yl)-6-chloro-8-fluoro-2-(((2R,7aS)-2-fluorotetrahydro-1H-pyrrolizin-7a(5H)-yl)methoxy)quinazolin-4-yl)piperidin-3-yl)-N-methyl-1H-1,2,4-triazole-1-carboxamide]",≤ 500
7,"CC(C)[C@H]1N(C(=O)n2cnc(Cl)n2)C[C@]12CCCN(c1nc(OC[C@@]34CCCN3C[C@H](F)C4)nc3c(F)c(-c4ccc(F)c5sc(N)c(C#N)c45)c(Cl)cc13)C2 [Compound 190, 2-amino-4-(6-chloro-4-((1R,4R)-2-(3-chloro-1H-1,2,4-triazole-1-carbonyl)-1-isopropyl-2,6-diazaspiro[3.5]nonan-6-yl)-8-fluoro-2-(((2R,7aS)-2-fluorotetrahydro-1H-pyrrolizin-7a(5H)-yl)methoxy)quinazolin-7-yl)-7-fluorobenzo[b]thiophene-3-carbonitrile]",≤ 500
8,"CC(C)[C@@H]1[C@H](CN(C)c2nc(OC[C@@]34CCCN3C[C@H](F)C4)nc3c(F)c(-c4ccc(F)c5sc(N)c(C#N)c45)c(Cl)cc23)CN1C(=O)n1cnc(C(F)F)n1 [Compound 230, 2-amino-4-(6-chloro-4-((((2R,3R)-1-(3-(difluoromethyl)-1H-1,2,4-triazole-1-carbonyl)-2-isopropylazetidin-3-yl)methyl)(methyl)amino)-8-fluoro-2-(((2R,7aS)-2-fluorotetrahydro-1H-pyrrolizin-7a(5H)-yl)methoxy)quinazolin-7-yl)-7-fluorobenzo[b]thiophene-3-carbonitrile]",≤ 500

# Other lines, results leading:
row,IC50 [nM],Compound
1,≤ 500,"CCN(C(=O)n1cncn1)C1CCCN(c2nc(OC[C@@]34CCCN3C[C@H](F)C4)nc3c(F)c(-c4ccc(F)c5sc(N)c(C#N)c45)c(Cl)cc23)C1 (stereo partly drawn) [Compound 209, N-(1-(7-(2-amino-3-cyano-7-fluorobenzo[b]thiophen-4-yl)-6-chloro-8-fluoro-2-(((2R,7aS)-2-fluorotetrahydro-1H-pyrrolizin-7a(5H)-yl)methoxy)quinazolin-4-yl)piperidin-3-yl)-N-ethyl-1H-1,2,4-triazole-1-carboxamide]"
2,≤ 500,"CN(C[C@@H]1CN(C(=O)n2cnc(F)n2)[C@@H]1C1(CF)CC1)c1nc(OC[C@@]23CCCN2C[C@H](F)C3)nc2c(F)c(-c3ccc(F)c4sc(N)c(C#N)c34)c(Cl)cc12 [Compound 148, 2-amino-4-(6-chloro-8-fluoro-4-((((2S,3R)-1-(3-fluoro-1H-1,2,4-triazole-1-carbonyl)-2-(1-(fluoromethyl)cyclopropyl)azetidin-3-yl)methyl)(methyl)amino)-2-(((2R,7aS)-2-fluorotetrahydro-1H-pyrrolizin-7a(5H)-yl)methoxy)quinazolin-7-yl)-7-fluorobenzo[b]thiophene-3-carbonitrile]"
3,≤ 500,"CC(C)C1N(C(=O)n2cncn2)CC12CCCN(c1nc(OC[C@@]34CCCN3C[C@H](F)C4)nc3c(F)c(-c4ccc(F)c5sc(N)c(C#N)c45)c(Cl)cc13)C2 (stereo partly drawn) [Compound 116, 2-amino-4-(6-chloro-8-fluoro-2-(((2R,7aS)-2-fluorotetrahydro-1H-pyrrolizin-7a(5H)-yl)methoxy)-4-(1-isopropyl-2-(1H-1,2,4-triazole-1-carbonyl)-2,6-diazaspiro[3.5]nonan-6-yl)quinazolin-7-yl)-7-fluorobenzo[b]thiophene-3-carbonitrile]"
4,≤ 500,"CN(C(=O)n1cncn1)C1CCN(c2nc(OC[C@@]34CCCN3C[C@H](F)C4)nc3c(F)c(-c4ccc(F)c5sc(N)c(C#N)c45)c(Cl)cc23)C1 (stereo partly drawn) [Compound 124, N-(1-(7-(2-amino-3-cyano-7-fluorobenzo[b]thiophen-4-yl)-6-chloro-8-fluoro-2-(((2R,7aS)-2-fluorotetrahydro-1H-pyrrolizin-7a(5H)-yl)methoxy)quinazolin-4-yl)pyrrolidin-3-yl)-N-methyl-1H-1,2,4-triazole-1-carboxamide]"
5,≤ 500,"C[C@H]1CC[C@]2(CN(C(=O)n3cnc(C(F)F)n3)[C@@H]2C2CCC2)CN1c1nc(OC[C@@]23CCCN2C[C@H](F)C3)nc2c(F)c(-c3ccc(F)c4sc(N)c(C#N)c34)c(Cl)cc12 [Compound 229, 2-amino-4-(6-chloro-4-((1R,4R,7S)-1-cyclobutyl-2-(3-(difluoromethyl)-1H-1,2,4-triazole-1-carbonyl)-7-methyl-2,6-diazaspiro[3.5]nonan-6-yl)-8-fluoro-2-(((2R,7aS)-2-fluorotetrahydro-1H-pyrrolizin-7a(5H)-yl)methoxy)quinazolin-7-yl)-7-fluorobenzo[b]thiophene-3-carbonitrile]"
6,≤ 500,"C[C@H]1CC[C@]2(CN(C(=O)n3cnc(Cl)n3)[C@@H]2C2CCC2)CN1c1nc(OC[C@@]23CCCN2C[C@H](F)C3)nc2c(F)c(-c3ccc(F)c4sc(N)c(C#N)c34)c(Cl)cc12 [Compound 146, 2-amino-4-(6-chloro-4-((1R,4R,7S)-2-(3-chloro-1H-1,2,4-triazole-1-carbonyl)-1-cyclobutyl-7-methyl-2,6-diazaspiro[3.5]nonan-6-yl)-8-fluoro-2-(((2R,7aS)-2-fluorotetrahydro-1H-pyrrolizin-7a(5H)-yl)methoxy)quinazolin-7-yl)-7-fluorobenzo[b]thiophene-3-carbonitrile]"
7,≤ 500,"C[C@H]1CC[C@]2(CN(C(=O)n3cnc(F)n3)[C@@H]2C2(C)CC2)CN1c1nc(OC[C@]23CCCN2CC(=C(F)F)C3)nc2c(F)c(-c3ccc(F)c4sc(N)c(C#N)c34)c(Cl)cc12 [Compound 223, 2-amino-4-(6-chloro-2-(((R)-2-(difluoromethylene)tetrahydro-1H-pyrrolizin-7a(5H)-yl)methoxy)-8-fluoro-4-((1R,4R,7S)-2-(3-fluoro-1H-1,2,4-triazole-1-carbonyl)-7-methyl-1-(1-methylcyclopropyl)-2,6-diazaspiro[3.5]nonan-6-yl)quinazolin-7-yl)-7-fluorobenzo[b]thiophene-3-carbonitrile]"
